Laboratory results reported in US6518014B1, “Hepadnavirus cores” (priority 1996, dated 2003).
*1 amine or outer side, *2 acyl side, *3 side chain or, on linkers, in order; H or OH if unused. Where a SMILES comes first, the peptide text is derived from it. Bridges are numbered along the chain shown (N, C = ends). Roman numbers before positions name the chains, in order. [ ]: non-standard residue; d: D form. Actinocin(9to1) = Cc1c2oc3c(C)ccc(C(=O)[*:1])c3nc-2c(C(=O)[*:2])c(N)c1=O; NMeV = CN[C@H](C(=O)O)C(C)C; Sar = CNCC(=O)O

How the values were obtained:
hepadnavirus polymerase [1] = target: T1, hepadnavirus polymerase (Hepatitis B virus genotype D subtype ayw, UniProt P03156); experiment: Endogenous polymerase assay (EPA) with size analysis of endogenously labeled DNA from nucleocapsids, actinomycin D comparative sample; format: biochemical; settings: 80-100 μg per ml actinomycin D in comparative sample
T1 construct: made in house; host or cells: Spodoptera frugiperda SF9 cells infected with recombinant baculoviruses (pVL1393-derived)
Protocol: The beads were resuspended in 50 μl EPA reaction mix (50 mM Tris-HCl, pH 7.4, 75 mM NH4Cl, 1 mM EDTA, 20 mM MgCl2, 0.1 mM β-mercaptoethanol, 0.5% Tween 20, 50 μM dNTP mix (Ultrapure, Pharmacia, Uppsala, Sweden)), and the resulting suspension was incubated at 37° C. for 6 h.
The beads were washed once with 800 μl IP wash buffer (50 mM Tris-HCl, pH 7.4, 150 mM NaCl, 5 mM EDTA, 1% Triton-X 100, 0.02% SDS) and resuspended in 50 μl TNE (10 mM Tris-HCl, pH 7.4, 150 mM NaCl, 1 mM EDTA) containing 1% SDS and 10 mM dithiothreitol. The beads were then heated to boiling temperature (100 C) for 7 min to disintegrate the capsids, and the supernates isolated by centrifugation and transferred to microfuge cups, with the supemates from […] parallel reactions combined in each microfuge cup. […]
The synthesis that is actinomycin D sensitive is measured with the above-described EPA assay where 80-100 μg per ml of actinomycin D are added in a comparative sample.
SF9 cells were harvested 90 hours postinfection with recombinant viruses (a) BV-ECPE, (b) BV-EC+BV-PDE, (c) BV-EC and (d) BV-PDE. […] Immunoprecipitated core particles were subjected to EPA as described above, and deproteinized nucleic acids isolated from the assay samples were analyzed on a 1% agarose gel, and visualized by autoradiography. […]

hepadnavirus polymerase [2] = target: T1, hepadnavirus polymerase; experiment: In vitro polymerase activity of isolated core particles in the presence of Actinomycin D; format: biochemical; settings: 100 μg/ml Actinomycin D; (−) strand synthesis from an RNA template
From the text: This observation further confirms that the primary activity observed is the (−) strand synthesis from an RNA template. Site-directed mutagenesis has been used to change an tyr-met-asp-asp (SEQ ID NO:16) sequence in the HBV polymerase active site to a tyr-met-his-ala (SEQ ID NO:17) sequence, a mutation that has been previously shown to destroy polymerase activity. See, for example, Seifer and Strandring, Intervirology 38:295-303,1995; Wang & Seeger, Cell 71:663-670, 1992. For an analogous active site mutation, see Radziwill et al., J. Virol. 64:613-620,1990. When this mutant is used in the methods of the invention to create core particles, the core particles lack polymerase activity. This observation confirms that it is indeed hepadnavirus polymerase activity that is being observed in the core particles of the invention.
A 96 well plate was prepared with wells containing either various dilutions of test sample containing a prospective bioactive agent, a positive control, a known hepadnavirus polymerase inhibitor, or an EDTA sample for which no polymerase activity should be detected and which thus indicates, after the assay processing, non-specific, background radioactivity. The plate has eight rows of wells, A through H, and twelve columns of wells, 1 through 12. […]
The background radioactivity determined from column 12, wells E through H, was subtracted from all of the remaining values. […]

T1 sequence (P03156 whole entry): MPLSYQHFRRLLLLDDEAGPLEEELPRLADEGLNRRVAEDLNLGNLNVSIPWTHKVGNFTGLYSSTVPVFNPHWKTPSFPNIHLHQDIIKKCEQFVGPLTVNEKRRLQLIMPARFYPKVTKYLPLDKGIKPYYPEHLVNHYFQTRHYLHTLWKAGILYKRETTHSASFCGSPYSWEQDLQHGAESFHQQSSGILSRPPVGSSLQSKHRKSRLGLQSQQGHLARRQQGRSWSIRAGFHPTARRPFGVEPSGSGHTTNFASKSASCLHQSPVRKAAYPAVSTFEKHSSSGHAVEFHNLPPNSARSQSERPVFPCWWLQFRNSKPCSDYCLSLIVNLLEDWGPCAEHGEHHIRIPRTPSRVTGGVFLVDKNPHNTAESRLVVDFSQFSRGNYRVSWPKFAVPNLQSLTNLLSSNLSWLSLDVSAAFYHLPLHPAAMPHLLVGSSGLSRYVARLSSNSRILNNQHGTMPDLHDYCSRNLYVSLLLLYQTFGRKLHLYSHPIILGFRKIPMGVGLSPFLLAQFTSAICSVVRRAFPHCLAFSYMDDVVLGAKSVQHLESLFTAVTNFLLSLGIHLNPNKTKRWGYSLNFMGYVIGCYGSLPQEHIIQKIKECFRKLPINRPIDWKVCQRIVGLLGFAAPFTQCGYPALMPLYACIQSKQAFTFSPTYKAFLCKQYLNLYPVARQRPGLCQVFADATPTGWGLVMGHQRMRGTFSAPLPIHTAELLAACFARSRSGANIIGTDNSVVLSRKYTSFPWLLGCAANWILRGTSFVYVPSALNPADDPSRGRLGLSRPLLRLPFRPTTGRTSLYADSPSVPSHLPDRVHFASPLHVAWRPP

Compound: Cc1c2oc3c(C)ccc(C(=O)N[C@@H]4C(=O)N[C@H](C(C)C)C(=O)N5CCC[C@H]5C(=O)N(C)CC(=O)N(C)[C@@H](C(C)C)C(=O)O[C@@H]4C)c3nc-2c(C(=O)N[C@@H]2C(=O)N[C@H](C(C)C)C(=O)N3CCC[C@H]3C(=O)N(C)CC(=O)N(C)[C@@H](C(C)C)C(=O)O[C@@H]2C)c(N)c1=O [Actinomycin D] (I: T[dV]P[Sar][NMeV] / II: T[dV]P[Sar][NMeV]; ester I:1-I:C, II:1-II:C; linker I:N-II:N via Actinocin(9to1))
- actinomycin D sensitivity of EPA product nucleic acids, trans cores (hepadnavirus polymerase [1]; BV-EC+BV-PDE (trans) cores from SF9 cells): not the trans products
- actinomycin D sensitivity of EPA product nucleic acids, cis cores (hepadnavirus polymerase [1]; BV-ECPE (cis) cores from SF9 cells): mostly actinomycin D sensitive
- polymerase activity exhibited by core particles in the presence of Actinomycin D (hepadnavirus polymerase [2]): active
